Source: ChEMBL document CHEMBL2176951, “Molecular mechanisms of acquired proteasome inhibitor resistance” (J Med Chem, 2012)
One block for each compound: values may come before it.

Columns and labels:
Homo sapiens = organism: Homo sapiens; experiment: P-gp-mediated drug resistance in human CEM/VLB cells relative to control; assay type: cell-based
THP-1 [1] = experiment: Effect on PSMB5 mRNA expression in human THP1 cells at 100 nM relative to control; assay type: functional
THP-1 [2] = experiment: Effect on 20S proteasome subunit beta5 expression in human THP1 cells at 50 nM relative to control; assay type: functional
RPMI-8226 [3] = experiment: Effect on PSMB5 mRNA expression in human RPMI8226 cells at 100 nM relative to control; assay type: functional
SW1573 = experiment: Effect on 20S proteasome subunit beta5 expression in human SW1573 cells at 150 nM relative to control; assay type: functional; conditions: pooled result: one value given for 7 cell lines, strains, targets or settings
THP-1 [4] = experiment: Effect on PSMB5 mRNA expression in human THP1 cells at 200 nM relative to control; assay type: functional
THP-1 [5] = experiment: Effect on 20S proteasome subunit beta5 expression in human THP1 cells at 30 nM relative to control; assay type: functional
THP-1 [6] = experiment: Effect on PSMB5 mRNA expression in human THP1 cells at 30 nM relative to control; assay type: functional
THP-1 [7] = experiment: Effect on PSMB5 mRNA expression in human THP1 cells at 50 nM relative to control; assay type: functional
HT-29 [8] = experiment: Effect on 20S proteasome subunit beta5 expression in human HT-29 cells at 200 nM relative to control; assay type: functional
THP-1 [9] = experiment: Effect on 20S proteasome subunit beta5 expression in human THP1 cells at 200 nM relative to control; assay type: functional
HT-29 [10] = experiment: Effect on 20S proteasome subunit beta5 expression in human HT-29 cells at 100 nM relative to control; assay type: functional
[11] = Effect on PSMB5 mRNA expression in human Jurkat-B cells expressing PSMB5 C323T mutant at 1000 nM relative to control; assay type: functional
RPMI-8226 [12] = experiment: Effect on PSMB5 mRNA expression in human RPMI8226 cells at 7 nM relative to control; assay type: functional
[13] = Effect on PSMB5 mRNA expression in human Jurkat-B cells expressing PSMB5 G322A mutant at 1000 nM relative to control; assay type: functional
THP-1 [14] = experiment: Effect on 20S proteasome subunit beta5 expression in human THP1 cells at 100 nM relative to control; assay type: functional
[15] = molecular target: T1, Proteasome component C5 (Homo sapiens) (UniProt P20618); experiment: Ratio of Kinact to Ki for human 20S proteasome subunit beta1
T1 sequence (whole entry): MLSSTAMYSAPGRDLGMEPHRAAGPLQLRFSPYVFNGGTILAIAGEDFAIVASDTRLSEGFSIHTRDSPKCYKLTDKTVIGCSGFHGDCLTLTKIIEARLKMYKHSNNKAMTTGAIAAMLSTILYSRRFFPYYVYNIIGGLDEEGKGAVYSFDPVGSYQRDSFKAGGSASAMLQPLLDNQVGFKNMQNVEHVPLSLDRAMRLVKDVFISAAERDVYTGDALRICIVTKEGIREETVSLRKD

RPMI-8226 [16] = experiment: Resistance factor, ratio of IC50 for 100 nM bortezonib-resistant human RPMI8226 cells harboring proteosome subunit beta5 A49T mutant to IC50 for wild type human RPMI8226 cells; assay type: functional
[17] = molecular target: T2, Proteasome Macropain subunit MB1 (Homo sapiens) (UniProt P28074); experiment: Ratio of Kinact to Ki for human 20S proteasome subunit beta5
T2 sequence (whole entry): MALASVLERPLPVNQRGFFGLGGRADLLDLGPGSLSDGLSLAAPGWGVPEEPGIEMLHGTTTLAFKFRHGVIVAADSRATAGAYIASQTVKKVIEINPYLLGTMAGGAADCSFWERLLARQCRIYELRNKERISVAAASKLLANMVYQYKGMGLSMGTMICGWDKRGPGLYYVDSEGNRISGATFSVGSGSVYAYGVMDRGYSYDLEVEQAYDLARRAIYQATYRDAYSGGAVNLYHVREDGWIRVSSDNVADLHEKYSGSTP

[18] = molecular target: Proteasome Macropain subunit (Homo sapiens) (UniProt P49721); experiment: Ratio of Kinact to Ki for human 20S proteasome subunit beta2
Sequence of Proteasome Macropain subunit (Homo sapiens) (P49721 whole entry): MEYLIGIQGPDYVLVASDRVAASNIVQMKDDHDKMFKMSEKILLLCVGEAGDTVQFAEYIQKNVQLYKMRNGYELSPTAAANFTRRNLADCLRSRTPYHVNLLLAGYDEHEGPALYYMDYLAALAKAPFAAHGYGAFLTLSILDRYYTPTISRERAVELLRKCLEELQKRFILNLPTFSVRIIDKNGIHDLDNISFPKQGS

[19] = molecular target: T3, Proteasome Macropain subunit MB1 (Homo sapiens, UniProt P28074); experiment: Reversible inhibition of human erythrocyte derived 20S proteasome subunit beta5 after 30 mins by fluorogenic assay
T3 sequence (P28074 whole entry): T2 sequence (whole entry)

SMILES: COC[C@H](NC(=O)c1cnc(C)s1)C(=O)N[C@@H](COC)C(=O)N[C@@H](Cc1ccccc1)C(=O)[C@@]1(C)CO1
fold change (FC) (Homo sapiens): 23

SMILES: CC(C)C[C@H](NC(=O)[C@H](Cc1ccccc1)NC(=O)c1cnccn1)B(O)O [BORTEZOMIB]
fold change (FC) (THP-1 [1]): 0.6
fold change (FC) (THP-1 [2]): 60
fold change (FC) (RPMI-8226 [3]): 15
fold change (FC) (SW1573): 1.3
fold change (FC) (THP-1 [4]): 0.9
fold change (FC) (THP-1 [5]): 60
fold change (FC) (THP-1 [6]): 0.4
fold change (FC) (THP-1 [7]): 0.5
fold change (FC) (HT-29 [8]): 3
fold change (FC) (THP-1 [9]): 60
fold change (FC) (HT-29 [10]): 3
fold change (FC) [11]: 0.9
fold change (FC) (RPMI-8226 [12]): 5
fold change (FC) [13]: 1.7
fold change (FC) (THP-1 [14]): 60

Ratio [15]: < 100 M⁻¹ s⁻¹
Ratio [17]: 33000 M⁻¹ s⁻¹
Ratio [18]: < 100 M⁻¹ s⁻¹
SMILES: CC(C)C[C@H](NC(=O)[C@H](CCc1ccccc1)NC(=O)CN1CCOCC1)C(=O)N[C@@H](Cc1ccccc1)C(=O)N[C@@H](CC(C)C)C(=O)[C@@]1(C)CO1 [CARFILZOMIB]
Ratio IC50 (RPMI-8226 [16]): 9.7
fold change (FC) (Homo sapiens): 114

IC50 [19]: 3.5 nM
SMILES: CC(C)C[C@H](NC(=O)[C@@H](NC(=O)c1cccc(-c2ccccc2)n1)[C@@H](C)O)B(O)O [DELANZOMIB]
